# Experimental data reported in patent US8835428B2, “Diacylglycerol acyltransferase inhibitors” (Piramal Enterprises Limited, priority 2008, dated 2014).
# Molecular target: T1, hDGAT1 (Homo sapiens, UniProt O75907)
# T1 construct: host or cells: Sf9 insect cells (baculovirus); microsomal preparation
# T1 sequence (O75907 1-488): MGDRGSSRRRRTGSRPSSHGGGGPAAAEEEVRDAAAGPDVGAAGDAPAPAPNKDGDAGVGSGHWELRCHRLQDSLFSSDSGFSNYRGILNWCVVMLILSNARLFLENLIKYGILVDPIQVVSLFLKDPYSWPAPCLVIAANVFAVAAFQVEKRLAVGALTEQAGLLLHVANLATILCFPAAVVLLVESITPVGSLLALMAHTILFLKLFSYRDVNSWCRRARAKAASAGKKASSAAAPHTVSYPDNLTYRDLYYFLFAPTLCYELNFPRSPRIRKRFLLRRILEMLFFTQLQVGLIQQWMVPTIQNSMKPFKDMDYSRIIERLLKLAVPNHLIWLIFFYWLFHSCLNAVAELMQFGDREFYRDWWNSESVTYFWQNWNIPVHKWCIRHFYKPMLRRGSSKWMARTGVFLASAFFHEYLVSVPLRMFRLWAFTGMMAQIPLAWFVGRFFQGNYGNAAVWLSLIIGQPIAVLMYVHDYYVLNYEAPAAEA
# Assay: In-vitro DGAT1 assay (hDGAT1 microsomes from Sf9 cells, 14C oleoyl CoA, triglyceride formation)
# Format: biochemical
# Description: In-vitro Protocol for DGAT1 Assay
# Sf9 Culture and Treatment
# Sf9 cells were grown in T25 flasks containing Graces's Insect media with 10% FBS with antibiotic (100 units/mL penicillin, 100 μg/mL streptomycin sulphate, 0.25 μg/mL Amptotericin B as Fungizone) grown in a 27° C. incubator:
# hDGAT1ORF expression clone (RZPDo839C09146 in pDEST vector) was obtained from RZPD, Germany. hDGAT1 bacmid DNA was obtained by transformation of the hDGAT expression clone into DH10Bac E. coli competent cells. Approximately 1 μg of hDGAT1 bacmid DNA was infected into Sf9 cells with Cellfectin (Invitrogen) reagent. Following infection, Sf9 cells were incubated at 27° C. for 30 minutes. Five hours after infection, the media was replaced with growth media containing antibiotic (100 units/mL penicillin, 100 μg/mL streptomycin sulphate, 0.25 μg/mL Amptotericin B as Fungizone) and incubated at 27° C. for 72 hours. The supernatant containing the virus was centrifuged at 1500×g for 5 minutes, passed through 0.22 μm filter, and subsequently stored at 4° C. The virus was further amplified three more times by re-infection of Sf9 cells and the viral titer was determined by plaque assay.
# Preparation of DGAT1 Microsomes from Sf9 Cells
# Sf9 cells were seeded in spinner flasks on day 0 at a cell density of 1×10^6 and infected on day 1 with hDGAT1 baculovirus at a multiplicity of infection (MOI) of 5 and a cell density of 2×10^6. On day 3 (or 66-72 hours), cells were harvested and centrifuged at 2500×g for 10 minutes. Pellet was resuspended in lysis buffer (100 mM sucrose, 50 mM KCl, 40 mM KH2PO4, 30 mM EDTA, pH 7.2) and passed through 21-gauge needle approximately 10 times. The mixture was centrifuged at 12,000 rpm in a Sigma 12158-H rotor at 4° C. for 30 minutes. The supernatant was subjected to centrifugation at 35,000 rpm in a Beckman Ti-45 rotor at 4° C. for 1 hour. The resultant pellet containing the microsomes were resuspended overnight in 1 mL of lysis buffer and total protein concentration was estimated using Bradford Reagent. Microsomes were aliquoted and stored at −20° C.
# Measurement of DGAT1 Activity
# Frozen aliquots of hDGAT1 containing microsomes were thawed (5-10 mg/mL total protein) on ice and diluted to a working stock of 1 mg/mL with DGAT Assay Buffer (DAB). The DGAT reaction assay was performed by following the procedure described in U.S. Pat. No. 6,607,893 with some modifications that are described below.
# Preparation of DGAT1 substrate mixture: 1 mL stock solution of DGAT1 substrate mixture contains (i) 5.6 μL of ^14C oleoyl CoA (16.8 nCi) and 35 μL 1,2-dioleoyl-sn-glycerol (409.5 μM) or (ii) 5.6 μL of ^14C oleoyl CoA (16.8 nCi) and 105 μL 1,2-dioleoyl-sn-glycerol (1228.5 μM) or (iii) 5.6 μL of ^14C oleoyl CoA (16.8 nCi) and 140 μL 1,2-dioleoyl-sn-glycerol (1638 μM).
# 1,2-sn-dioleoylglycerol substrate concentration in the 1 mL stock solution of DGAT1 substrate mixture was varied depending on the microsome concentration used in the assay reaction. 1,2-dioleoyl-sn-glycerol stock (19.5 mM) was prepared by dissolving 25 mg of 1,2-dioleoyl-sn-glycerol (Sigma, US) in 2060 μL of acetone. The assay was performed in duplicates in a reaction volume of 100 μL. The reaction volume consisted of: • (i) 27.5 μL of DGAT assay buffer (0.25M Sucrose, 1 mM EDTA (pH 8.0), 150 mM Tris-HCl, pH 7.4, 1.25 mg/mL, fatty acid free BSA), • (ii) 10 μL of compound, of present invention or standard (dissolved in DMSO and diluted to 10× with DAB and screened at 10 μM, 5 μM and 1 μM), • (iii) 60 μL DGAT1 substrate mixture taken from a 1 mL stock (16.8 nCi of ^14C oleoyl CoA and 409.5 μM or 1228.5 μM or 1638 μM of 1,2-dioleyl-sn-glycerol), • (iv) 2.5-10 μL of 1 mg/mL of microsomes (the amount of assay buffer was varied depending upon the concentration of microsome to make up the volume to 100 μL). Procedure:
# The reaction was started by the addition of 2.5-10 μL of 1 mg/mL of microsomes (iv) to a mixture of (i), (ii) and (iii), vortexed and incubated at 37° C. for 10 minutes. […]
inhibition at 10 µM (At 10 μM) [%],inhibition at 5 µM [%],Compound,also measured
75 to 100,,"Cc1cc(NC(=O)Nc2ccc(F)cc2)ccc1-c1cc(C(=O)NC(C(=O)O)C(C)C)on1 (stereo not shown) [Example 134, 2-(3-(4-(3-(4-fluorophenyl)ureido)-2-methylphenyl)isoxazole-5-carboxamido)-3-methylbutanoic acid]",
0 to 50,,"COC(=O)C(CC(C)C)NC(=O)c1cc(-c2cc(NC(=O)Nc3ccc(F)cc3)ccc2C)no1 (stereo not shown) [Example 131, Methyl 2-(3-(5-(3-(4-fluorophenyl)ureido)-2-methylphenyl)isoxazole-5-carboxamido)-4-methylpentanoate]",
0 to 50,,"COC(=O)[C@@H](NC(=O)c1onc(-c2ccc(NC(=O)Nc3ccccc3)cc2)c1-c1ccccc1)C(C)C [Example 88, (S)-3-Methyl-2-({4-phenyl-3-[4-(3-phenyl-ureido)-phenyl]-isoxazole-5-carbonyl}-amino)-butyric acid methyl ester]",
50 to 75,,"COC(=O)[C@@H](NC(=NO)c1cc(-c2ccc(Nc3nc4ccc(F)cc4s3)cc2)no1)C(C)C [Example 7, (S)-2-({3-[4-(6-Fluoro-benzothiazol-2-ylamino)-phenyl]-N-hydroxy-isoxazole-5-carboximidoyl}-amino)-3-methyl-butyric acid methyl ester]",
,0 to 50,"COC(=O)C(NC(=O)c1cc(-c2ccc(NC(=O)Nc3ccccc3F)cc2C)no1)C(C)C (stereo not shown) [Example 135, Methyl 2-(3-(4-(3-(2-fluorophenyl)ureido)-2-methylphenyl)isoxazole-5-carboxamido)-3-methylbutanoate]",
50 to 75,,"COC(=O)C1(NC(=O)c2cc(-c3ccc(NC(=O)Nc4ccc(F)cc4)cc3)no2)CCCC1 [Example 119, Methyl 1-(3-(4-(3-(4-fluorophenyl)ureido)phenyl)isoxazole-5-carboxamido)cyclopentanecarboxylate]",

# Continued, compound first:
Compound,inhibition at 10 µM (At 10 μM) [%],inhibition at 5 µM [%],also measured
"COC(=O)[C@@H](NC(=O)c1cc(-c2ccc(NC(=O)NC3CCCCC3)cc2)no1)C(C)C [Example 80, (S)-2-(S)-2-({3-[4-(3-cyclohexyl-ureido)-phenyl]-isoxazole-5-carbonyl}-amino)-3-methyl-butyric acid methyl ester]",,,% inhibition of hDGAT1 (At 10 μM): ++ (>50% Inhibition ≦75)
"COC(=O)C(NC(=O)c1cc(-c2ccc(NC(=O)Nc3ccc(C)cc3)cc2)no1)C(C)C (stereo not shown) [Example 125, Methyl 3-methyl-2-(3-(4-(3-p-tolylureido)phenyl)isoxazole-5-carboxamido)butanoate]",50 to 75,,
"CC(C)[C@H](NC(=O)c1cc(-c2ccc(NC(=O)Nc3ccc(F)c(F)c3F)cc2)no1)C(=O)O [Example 191, (S)-3-Methyl-2-(3-(4-(3-(2,3,4-trifluorophenyl)ureido)phenyl)isoxazole-5-carboxamido)butanoic acid]",,,inhibition at 1 µM (At 1 μM): 75 to 100%
"CC(C)[C@H](NC(=O)c1cc(-c2ccc(NC(=O)Nc3ccccc3F)cc2)no1)C(=O)OC(C)(C)C [Example 300, (S)-tert-butyl 2-(3-(4-(3-(2-fluorophenyl)ureido)phenyl)isoxazole-5-carboxamido)-3-methylbutanoate]",,50 to 75,
"C=C(NC(=O)c1cc(-c2ccc(NC(=O)Nc3ccc(C)cc3)cc2)no1)C(=O)O [Example 304, 2-(3-(4-(3-p-tolylureido)phenyl)isoxazole-5-carboxamido)acrylic acid]",,,inhibition at 1 µM (At 1 μM): 50 to 75%
2-(3-(4-(Benzyloxy)phenyl)isoxazole-5-carboxamido)-3-methylbutanoic acid [Example 324],,,% inhibition of hDGAT1 (At 1 μM): + (>0% Inhibition ≦50)
"O=C(Nc1ccc(-c2cc(C(=O)NC(Cc3ccccc3)C(=O)O)on2)cc1)Nc1ccc(F)cc1F (stereo not shown) [Example 246, 2-(3-(4-(3-(2,4-Difluorophenyl)ureido)phenyl)isoxazole-5-carboxamido)-3-phenylpropanoic acid]",,50 to 75,
"COC(=O)[C@@H](NC(=O)c1nc(-c2ccc(NC(=S)NCc3ccccc3)cc2)no1)C(C)C [Example 356, (S)-methyl 2-(3-(4-(3-benzylthioureido)phenyl)-1,2,4-oxadiazole-5-carboxamido)-3-methylbutanoate]",,50 to 75,
"O=C(O)CNC(=O)c1cc(-c2ccc(Nc3nc4ccc(F)cc4s3)cc2)no1 [Example 59, ({3-[4-(6-Fluoro-benzothiazol-2-ylamino)-phenyl]-isoxazole-5-carbonyl}-amino)-acetic acid]",0 to 50,,
"Cc1cccc(NC(=O)Nc2ccc(-c3cc(C(=O)N[C@H](C(=O)O)C(C)C)on3)cc2)c1 [Example 266, (S)-3-methyl-2-(3-(4-(3-m-tolylureido)phenyl)isoxazole-5-carboxamido)butanoic acid]",,75 to 100,
"COC(=O)[C@H](Cc1ccc(O)cc1)NC(=O)c1cc(-c2ccc(NC(=O)Nc3ccc(C)cc3)cc2)no1 [Example 272, (S)-Methyl 3-(4-hydroxyphenyl)-2-(3-(4-(3-p-tolylureido)phenyl)isoxazole-5-carboxamido)propanoate]",,0 to 50,
"COC(=O)C(CC(C)C)NC(=O)c1cc(-c2ccc(NC(=O)NCc3ccccc3)cc2)no1 (stereo not shown) [Example 109, Methyl 2-(3-(4-(3-benzylureido)phenyl)isoxazole-5-carboxamido)-4-methylpentanoate]",0 to 50,,
"COC(=O)CCCNC(=O)c1cc(-c2ccc(NC(=O)Nc3ccccc3F)cc2)no1 [Example 253, Methyl 4-(3-(4-(3-(2-fluorophenyl)ureido)phenyl)isoxazole-5-carboxamido)butanoate]",,0 to 50,
"CC(C)C(NC(=O)c1cc(-c2ccc(NC(=O)Nc3ccc(F)cc3F)cc2)no1)C(=O)O (stereo not shown) [Example 112, 2-(3-(4-(3-(2,4-Difluorophenyl)ureido)phenyl)isoxazole-5-carboxamido)-3-methylbutanoic acid]",75 to 100,,
"COC(=O)C(NC(=O)c1cc(-c2ccc(NC(=O)NCc3ccccc3)cc2)no1)C(C)C (stereo not shown) [Example 107, Methyl 2-(3-(4-(3-benzylureido)phenyl)isoxazole-5-carboxamido)-3-methylbutanoate]",0 to 50,,
"COC(=O)C(NC(=O)c1cc(-c2ccc(NC(=O)Nc3ccc(OC)cc3)cc2)no1)C(C)C (stereo not shown) [Example 127, Methyl 2-(3-(4-(3-(4-methoxyphenyl)ureido)phenyl)isoxazole-5-carboxamido)-3-methylbutanoate]",0 to 50,,
